From patent US9809625B2, “Immunomodulators” (BRISTOL-MYERS SQUIBB COMPANY, priority 2015, dated 2017)
Bridge positions count the residues as written; N and C are the ends. Square brackets hold non-standard residues; d marks the D form. Peptide text beside a SMILES is read from it. * marks the point of attachment. Trp(1-CH2COOH) = N[C@@H](Cc1cn(CC(=O)O)c2ccccc12)C(=O)O; Hyp = O=C(O)[C@@H]1C[C@@H](O)CN1; NMeNle = CCCC[C@H](NC)C(=O)O; NMeA = CN[C@@H](C)C(=O)O; Piperidide = C1CCN(*)CC1; Pyrrolidide = C1CCN(*)C1; Dab = NCC[C@H](N)C(=O)O; X4 = [N-]=[N+]=NCCCCCN*; Dap = NC[C@H](N)C(=O)O; NHBn = c1ccc(CN*)cc1; NHCH2CH2OMe = COCCN*; N(Me)nPr = CCCN(C)*

Molecular target: T1, PD-1-Ig binding to PD-L1-TVMV-His (PD-L1-His) (Homo sapiens, UniProt Q9NZQ7)
T1 construct: hPDL1(19-239)-TVMV-His; TVMV protease cleavage site (C); made in house; host or cells: HEK293T
Assay: PD-1/PD-L1 Homogenous Time-Resolved Fluorescence (HTRF) binding assay
Details: PD-1-Ig (20 nM)/PD-L1-His (10 nM), range classes
From the text: Methods for Testing the Ability of Macrocyclic Peptides to Compete for the Binding of PD-1 to PD-L1 Using Homogenous Time-Resolved Fluorescence (HTRF) Binding Assays
The ability of the macrocyclic peptides of the present disclosure to bind to PD-L1 was investigated using a PD-1/PD-L1 Homogenous Time-Resolved Fluorescence (HTRF) binding assay.
Homogenous Time-Resolved Fluorescence (HTRF) Assays of Binding of Soluble PD-1 to Soluble PD-L1. Soluble PD-1 and soluble PD-L1 refers to proteins with carboxyl-end truncations that remove the transmembrane-spanning regions and are fused to heterologous sequences, specifically the Fc portion of the human immunoglobuling G sequence (Ig) or the hexahistidine epitope tag (His). All binding studies were performed in an HTRF assay buffer consisting of dPBS supplemented with 0.1% (w/v) bovine serum albumin and 0.05% (v/v) Tween-20. For the PD-1-Ig/PD-L1-His binding assay, inhibitors were pre-incubated with PD-L1-His (10 nM final) for 15 m in 4 μl of assay buffer, followed by addition of PD-1-Ig (20 nM final) in 1 μl of assay buffer and further incubation for 15 m. PD-L1 fusion proteins from either human, cynomologous macaques, mouse, or other species were used. HTRF detection was achieved using europium crypate-labeled anti-Ig monoclonal antibody (1 nM final) and allophycocyanin (APC) labeled anti-His monoclonal antibody (20 nM final). Antibodies were diluted in HTRF detection buffer and 5 μl was dispensed on top of binding reaction. The reaction was allowed to equilibrate for 30 minutes and signal (665 nm/620 nm ratio) was obtained using an EnVision fluorometer. Additional binding assays were established between PD-1-Ig/PD-L2-His (20 and 5 nM, respectively), CD80-His/PD-L1-Ig (100 and 10 nM, respectively) and CD80-His/CTLA4-Ig (10 and 5 nM, respectively). Binding/competition studies between biotinylated Compound No. 71 and human PD-L1-His were performed as follows. Macrocyclic peptide inhibitors were pre-incubated with PD-L1-His (10 nM final) for 60 minutes in 4 μl of assay buffer followed by addition of biotinylated Compound No. 71 (0.5 nM final) in 1 μl of assay buffer. Binding was allowed to equilibrate for 30 minutes followed by addition of europium crypated labeled Streptavidin (2.5 pM final) and APC-labeled anti-His (20 nM final) in 5 μl of HTRF buffer. The reaction was allowed to equilibrate for 30 m and signal (665 nm/620 nm ratio) was obtained using an EnVision fluorometer.
Recombinant Proteins. Carboxyl-truncated human PD-1 (amino acids 25-167) with a C-terminal human Ig epitope tag [hPD-1 (25-167)-3S-IG] and human PD-L1 (amino acids 18-239) with a C-terminal His epitope tag [hPD-L1(19-239)-tobacco vein mottling virus protease cleavage site (TVMV)-His] were expressed in HEK293T cells and purified sequentially by recombinant Protein A affinity chromatography and size exclusion chromatography. Human PD-L2-His (Sino Biologicals), CD80-His (Sino Biologicals), CTLA4-Ig (RnD Systems) were all obtained through commercial sources.

T1 sequence (Q9NZQ7 with tags, fused parts or gaps): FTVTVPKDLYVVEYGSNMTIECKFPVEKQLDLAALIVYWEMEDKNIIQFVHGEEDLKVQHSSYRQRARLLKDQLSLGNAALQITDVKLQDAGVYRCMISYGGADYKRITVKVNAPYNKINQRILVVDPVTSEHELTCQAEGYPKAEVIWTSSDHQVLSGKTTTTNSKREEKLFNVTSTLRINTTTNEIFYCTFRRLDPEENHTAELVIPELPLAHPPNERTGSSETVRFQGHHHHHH

Structure (SMILES)	IC50 [nM]
CCCC[C@H]1C(=O)N(C)[C@@H](CCCC)C(=O)N[C@@H](CC(C)C)C(=O)N[C@H](C(=O)NCC(=O)NCc2ccccc2)CSCC(=O)N[C@@H](Cc2ccc(O)cc2)C(=O)N(C)[C@@H](C)C(=O)N[C@@H](CC(N)=O)C(=O)N2CCC[C@H]2C(=O)N[C@@H](CN)C(=O)N[C@@H](CC(C)C)C(=O)N2C[C@H](O)C[C@H]2C(=O)N[C@@H](Cc2c[nH]c3ccccc23)C(=O)N[C@@H](CCN)C(=O)N[C@@H](Cc2cn(CC(=O)O)c3ccccc23)C(=O)N1C [Example 13080] ({CH2CO}-Y[NMeA]NP[Dap]L[Hyp]W[Dab][Trp(1-CH2COOH)][NMeNle][NMeNle]LCG-NHBn; thioether N-14)	4 to 9.9
CCCC[C@H]1C(=O)N(C)[C@@H](CCCC)C(=O)N[C@@H](CC(C)C)C(=O)N[C@H](C(=O)NCC(=O)NCCOC)CSCC(=O)N[C@@H](Cc2ccc(O)cc2)C(=O)N(C)[C@@H](C)C(=O)N[C@@H](CC(N)=O)C(=O)N2CCC[C@H]2C(=O)N[C@@H](CN)C(=O)N[C@@H](CC(C)C)C(=O)N2C[C@H](O)C[C@H]2C(=O)N[C@@H](Cc2c[nH]c3ccccc23)C(=O)NCC(=O)N[C@@H](Cc2c[nH]c3ccccc23)C(=O)N1C [Example 13082] ({CH2CO}-Y[NMeA]NP[Dap]L[Hyp]WGW[NMeNle][NMeNle]LCG-NHCH2CH2OMe; thioether N-14)	10 to 60
CCCC[C@H]1C(=O)N(C)[C@@H](CCCC)C(=O)N[C@@H](CC(C)C)C(=O)N[C@H](C(=O)NCC(=O)N2CCCC2)CSCC(=O)N[C@@H](Cc2ccc(O)cc2)C(=O)N(C)[C@@H](C)C(=O)N[C@@H](CC(N)=O)C(=O)N2CCC[C@H]2C(=O)N[C@@H](CN)C(=O)N[C@@H](CC(C)C)C(=O)N2C[C@H](O)C[C@H]2C(=O)N[C@@H](Cc2c[nH]c3ccccc23)C(=O)NCC(=O)N[C@@H](Cc2c[nH]c3ccccc23)C(=O)N1C [Example 13085] ({CH2CO}-Y[NMeA]NP[Dap]L[Hyp]WGW[NMeNle][NMeNle]LCG-Pyrrolidide; thioether N-14)	10 to 60
CCCC[C@H]1C(=O)N(C)[C@@H](CCCC)C(=O)N[C@@H](CC(C)C)C(=O)N[C@H](C(=O)NCC(=O)N2CCCCC2)CSCC(=O)N[C@@H](Cc2ccc(O)cc2)C(=O)N(C)[C@@H](C)C(=O)N[C@@H](CC(N)=O)C(=O)N2CCC[C@H]2C(=O)N[C@@H](CN)C(=O)N[C@@H](CC(C)C)C(=O)N2C[C@H](O)C[C@H]2C(=O)N[C@@H](Cc2c[nH]c3ccccc23)C(=O)NCC(=O)N[C@@H](Cc2c[nH]c3ccccc23)C(=O)N1C [Example 13086] ({CH2CO}-Y[NMeA]NP[Dap]L[Hyp]WGW[NMeNle][NMeNle]LCG-Piperidide; thioether N-14)	4 to 9.9

Further lines, results first:

IC50 [nM]	Structure (SMILES)
10 to 60	CCCC[C@H]1C(=O)N(C)[C@@H](CCCC)C(=O)N[C@@H](CC(C)C)C(=O)N[C@H](C(=O)NCC(=O)NCCCCCN=[N+]=[N-])CSCC(=O)N[C@@H](Cc2ccc(O)cc2)C(=O)N(C)[C@@H](C)C(=O)N[C@@H](CC(N)=O)C(=O)N2CCC[C@H]2C(=O)N[C@@H](CO)C(=O)N[C@@H](CCC(N)=O)C(=O)N2C[C@H](O)C[C@H]2C(=O)N[C@@H](Cc2c[nH]c3ccccc23)C(=O)N[C@@H](CO)C(=O)N[C@@H](Cc2c[nH]c3ccccc23)C(=O)N1C [Example 13081] ({CH2CO}-Y[NMeA]NPSQ[Hyp]WSW[NMeNle][NMeNle]LCG-X4; thioether N-14)
10 to 60	CCCC[C@H]1C(=O)N(C)[C@@H](CCCC)C(=O)N[C@@H](CC(C)C)C(=O)N[C@H](C(=O)NCC(=O)N(C)CCC)CSCC(=O)N[C@@H](Cc2ccc(O)cc2)C(=O)N(C)[C@@H](C)C(=O)N[C@@H](CC(N)=O)C(=O)N2CCC[C@H]2C(=O)N[C@@H](CN)C(=O)N[C@@H](CC(C)C)C(=O)N2C[C@H](O)C[C@H]2C(=O)N[C@@H](Cc2c[nH]c3ccccc23)C(=O)NCC(=O)N[C@@H](Cc2c[nH]c3ccccc23)C(=O)N1C [Example 13084] ({CH2CO}-Y[NMeA]NP[Dap]L[Hyp]WGW[NMeNle][NMeNle]LCG-{N(Me)nPr}; thioether N-14)
